In US20260008776A1 (HANGZHOU POLYMED BIOPHARMACEUTICALS, INC., priority 2023, published 2026):
Like-named read-outs stand apart in the source and are kept apart here.

Key:
DVS test of salt forms = format: physicochemical; details: for Hygroscopicity (DVS), in words: 0% to 90% humidity, two cycles
Text: 1. The instrument sample pan was first tared and balanced.
3. The program was run: starting from 0% humidity as the initial point, slowly increasing to 90%, then returning to 0% to complete the cycle 1; rising again to 90% and decreasing back to 0% to conclude, completing the cycle 2 (as shown in FIGS. 35-36).

[1] = Solubility test of salts in pH buffers, water and physiological solutions; format: physicochemical
Description: The solubility of dominant salts in different pH buffers, water, and physiological solutions was determined. The specific steps for solubility determination are as follows: […] The vials were sealed, transferred to a magnetic stirrer, and maintained at 25° C. with a stirring rate of 500 rpm for 24 hours. The dissolution status in sample vials was recorded during the test. After 24 hours, approximately 1 mL of the suspension was filtered, and the filtrate was collected for solubility test via HPLC analysis. The pH value of the filtrate sample was measured using a pH meter.

[2] = format: physicochemical
Description: The glass dishes or glass vials were then placed in different environments of the constant temperature and humidity chamber, with conditions including: illumination: 4500±500 Lux (open); high temperature: 60° C.

[3] = High Relative Humidity (RH = 90 ± 5%, Open, 25° C.), 5 Days
[4] = High Relative Humidity (RH = 90 ± 5%, Open, 25° C.), 11 Days
[5] = High Temperature (60° C., Sealed), 5 Days
[6] = High Temperature (60° C., Sealed), 11 Days
[7] = Strong Illumination (Open), 5 Days
[8] = Strong Illumination (Open), 11 Days

CC(C)(O)CCn1cc2cc(NC(=O)c3coc(-c4ccnc(C(F)(F)F)c4)n3)c(C(C)(C)O)cc2n1.Cl [crystal form A of hydrochloride salt]
Change of the sample before and after the DVS test (DVS test of salt forms): no changes are observed
Hygroscopicity (DVS), in words (DVS test of salt forms): low hygroscopicity
Water Sorption at 90% Relative Humidity (DVS test of salt forms): 0.42% Water Sorption at 90% Relative Humidity
Desorption (DVS test of salt forms; cycle 1, 0% humidity): −0.06%
Sorption (DVS test of salt forms; cycle 1, 0% humidity): 0.00%
Desorption (DVS test of salt forms; cycle 1, 10% humidity): −0.02%
Sorption (DVS test of salt forms; cycle 1, 10% humidity): −0.02%
Desorption (DVS test of salt forms; cycle 1, 20% humidity): 0.01%
Sorption (DVS test of salt forms; cycle 1, 20% humidity): 0.00%
Desorption (DVS test of salt forms; cycle 1, 30% humidity): 0.04%
Sorption (DVS test of salt forms; cycle 1, 30% humidity): 0.03%
Desorption (DVS test of salt forms; cycle 1, 40% humidity): 0.07%
Sorption (DVS test of salt forms; cycle 1, 40% humidity): 0.06%
Desorption (DVS test of salt forms; cycle 1, 50% humidity): 0.11%
Sorption (DVS test of salt forms; cycle 1, 50% humidity): 0.09%
Desorption (DVS test of salt forms; cycle 1, 60% humidity): 0.16%
Sorption (DVS test of salt forms; cycle 1, 60% humidity): 0.13%
Desorption (DVS test of salt forms; cycle 1, 70% humidity): 0.21%
Sorption (DVS test of salt forms; cycle 1, 70% humidity): 0.17%
Desorption (DVS test of salt forms; cycle 1, 80% humidity): 0.30%
Sorption (DVS test of salt forms; cycle 1, 80% humidity): 0.28%
Desorption (DVS test of salt forms; cycle 1, 90% humidity): 0.42%
Sorption (DVS test of salt forms; cycle 1, 90% humidity): 0.42%
Desorption (DVS test of salt forms; cycle 2, 0% humidity): −0.05%
Sorption (DVS test of salt forms; cycle 2, 0% humidity): −0.06%
Desorption (DVS test of salt forms; cycle 2, 10% humidity): −0.02%
Sorption (DVS test of salt forms; cycle 2, 10% humidity): −0.03%
Desorption (DVS test of salt forms; cycle 2, 20% humidity): 0.01%
Sorption (DVS test of salt forms; cycle 2, 20% humidity): 0.01%
Desorption (DVS test of salt forms; cycle 2, 30% humidity): 0.05%
Sorption (DVS test of salt forms; cycle 2, 30% humidity): 0.03%
Desorption (DVS test of salt forms; cycle 2, 40% humidity): 0.08%
Sorption (DVS test of salt forms; cycle 2, 40% humidity): 0.07%
Desorption (DVS test of salt forms; cycle 2, 50% humidity): 0.12%
Sorption (DVS test of salt forms; cycle 2, 50% humidity): 0.10%
Desorption (DVS test of salt forms; cycle 2, 60% humidity): 0.17%
Sorption (DVS test of salt forms; cycle 2, 60% humidity): 0.14%
Desorption (DVS test of salt forms; cycle 2, 70% humidity): 0.22%
Sorption (DVS test of salt forms; cycle 2, 70% humidity): 0.19%
Desorption (DVS test of salt forms; cycle 2, 80% humidity): 0.32%
Sorption (DVS test of salt forms; cycle 2, 80% humidity): 0.30%
Desorption (DVS test of salt forms; cycle 2, 90% humidity): 0.45%
Sorption (DVS test of salt forms; cycle 2, 90% humidity): 0.45%
Solubility at 25° C. ([1]; Buffer pH = 1.0, 24 hours): 172.73 µg/mL
Solubility at 25° C. ([1]; Buffer pH = 6.8, 24 hours): <LOD
Solubility at 25° C. ([1]; FaSSIF (pH = 6.5), 24 hours): 2.09 µg/mL
Solubility at 25° C. ([1]; FeSSIF (pH = 5.0), 24 hours): 7.86 µg/mL
Solubility at 25° C. ([1]; SGF (pH = 1.2), 24 hours): 2.20 µg/mL
Solubility at 25° C. ([1]; Water, 24 hours): <LOD
Solid-state stability evaluation [2]: good physical and chemical stability
Color Change [2, 3]: No Change
Purity [2, 3]: 99.65%
Salt Type [2, 3]: No Change
Color Change [2, 4]: No Change
Purity [2, 4]: 99.79%
Salt Type [2, 4]: No Change
Color Change [2, 5]: No Change
Purity [2, 5]: 99.64%
Salt Type [2, 5]: No Change
Color Change [2, 6]: No Change
Purity [2, 6]: 99.48%
Salt Type [2, 6]: No Change
Purity ([2]; Initial State): 98.53%
Color Change ([2]; Initial State (colour)): White
Color Change [2, 7]: No Change
Purity [2, 7]: 99.68%
Salt Type [2, 7]: No Change
Color Change [2, 8]: No Change
Purity [2, 8]: 99.56%
Salt Type [2, 8]: No Change

CC(C)(O)CCn1cc2cc(NC(=O)c3coc(-c4ccnc(C(F)(F)F)c4)n3)c(C(C)(C)O)cc2n1.O=P(O)(O)O [crystal form A of phosphate salt]
Change of the sample before and after the DVS test (DVS test of salt forms): no changes are observed
Hygroscopicity (DVS), in words (DVS test of salt forms): low hygroscopicity
Water Sorption at 90% Relative Humidity (DVS test of salt forms): 0.80% Water Sorption at 90% Relative Humidity
Desorption (DVS test of salt forms; cycle 1, 0% humidity): −0.04%
Sorption (DVS test of salt forms; cycle 1, 0% humidity): 0.00%
Desorption (DVS test of salt forms; cycle 1, 10% humidity): −0.01%
Sorption (DVS test of salt forms; cycle 1, 10% humidity): 0.02%
Desorption (DVS test of salt forms; cycle 1, 20% humidity): 0.01%
Sorption (DVS test of salt forms; cycle 1, 20% humidity): 0.04%
Desorption (DVS test of salt forms; cycle 1, 30% humidity): 0.04%
Sorption (DVS test of salt forms; cycle 1, 30% humidity): 0.06%
Desorption (DVS test of salt forms; cycle 1, 40% humidity): 0.09%
Sorption (DVS test of salt forms; cycle 1, 40% humidity): 0.10%
Desorption (DVS test of salt forms; cycle 1, 50% humidity): 0.15%
Sorption (DVS test of salt forms; cycle 1, 50% humidity): 0.14%
Desorption (DVS test of salt forms; cycle 1, 60% humidity): 0.21%
Sorption (DVS test of salt forms; cycle 1, 60% humidity): 0.20%
Desorption (DVS test of salt forms; cycle 1, 70% humidity): 0.31%
Sorption (DVS test of salt forms; cycle 1, 70% humidity): 0.29%
Desorption (DVS test of salt forms; cycle 1, 80% humidity): 0.46%
Sorption (DVS test of salt forms; cycle 1, 80% humidity): 0.44%
Desorption (DVS test of salt forms; cycle 1, 90% humidity): 0.80%
Sorption (DVS test of salt forms; cycle 1, 90% humidity): 0.80%
Desorption (DVS test of salt forms; cycle 2, 0% humidity): −0.05%
Sorption (DVS test of salt forms; cycle 2, 0% humidity): −0.04%
Desorption (DVS test of salt forms; cycle 2, 10% humidity): −0.03%
Sorption (DVS test of salt forms; cycle 2, 10% humidity): −0.02%
Desorption (DVS test of salt forms; cycle 2, 20% humidity): 0.00%
Sorption (DVS test of salt forms; cycle 2, 20% humidity): 0.01%
Desorption (DVS test of salt forms; cycle 2, 30% humidity): 0.03%
Sorption (DVS test of salt forms; cycle 2, 30% humidity): 0.04%
Desorption (DVS test of salt forms; cycle 2, 40% humidity): 0.07%
Sorption (DVS test of salt forms; cycle 2, 40% humidity): 0.07%
Desorption (DVS test of salt forms; cycle 2, 50% humidity): 0.13%
Sorption (DVS test of salt forms; cycle 2, 50% humidity): 0.12%
Desorption (DVS test of salt forms; cycle 2, 60% humidity): 0.20%
Sorption (DVS test of salt forms; cycle 2, 60% humidity): 0.18%
Desorption (DVS test of salt forms; cycle 2, 70% humidity): 0.29%
Sorption (DVS test of salt forms; cycle 2, 70% humidity): 0.27%
Desorption (DVS test of salt forms; cycle 2, 80% humidity): 0.45%
Sorption (DVS test of salt forms; cycle 2, 80% humidity): 0.43%
Desorption (DVS test of salt forms; cycle 2, 90% humidity): 0.79%
Sorption (DVS test of salt forms; cycle 2, 90% humidity): 0.79%
Solubility at 25° C. ([1]; Buffer pH = 6.8, 24 hours): <LOD
Solubility at 25° C. ([1]; FaSSIF (pH = 6.5), 24 hours): <LOD
Solubility at 25° C. ([1]; FeSSIF (pH = 5.0), 24 hours): <LOD
Solubility at 25° C. ([1]; SGF (pH = 1.2), 24 hours): <LOD
Solubility at 25° C. ([1]; Water, 24 hours): <LOD
Color Change [2, 3]: No Change
Purity [2, 3]: 99.66%
Salt Type [2, 3]: No Change
Color Change [2, 4]: No Change
Purity [2, 4]: 99.33%
Salt Type [2, 4]: No Change
Color Change [2, 5]: Turn Yellow
Purity [2, 5]: 99.49%
Salt Type [2, 5]: No Change
Color Change [2, 6]: Turn Yellow
Purity [2, 6]: 99.49%
Salt Type [2, 6]: No Change
Purity ([2]; Initial State): 99.18%
Color Change ([2]; Initial State (colour)): White
Color Change [2, 7]: No Change
Purity [2, 7]: 99.67%
Salt Type [2, 7]: No Change
Color Change [2, 8]: No Change
Purity [2, 8]: 99.01%
Salt Type [2, 8]: No Change

CC(C)(O)CCn1cc2cc(NC(=O)c3coc(-c4ccnc(C(F)(F)F)c4)n3)c(C(C)(C)O)cc2n1.O=S(=O)(O)O [crystal form A of sulfate salt]
Solubility at 25° C. ([1]; Buffer pH = 1.0, 24 hours): 179.03 µg/mL
Solubility at 25° C. ([1]; Buffer pH = 6.8, 24 hours): <LOD
Solubility at 25° C. ([1]; FaSSIF (pH = 6.5), 24 hours): <LOD
Solubility at 25° C. ([1]; FeSSIF (pH = 5.0), 24 hours): 19.45 µg/mL
Solubility at 25° C. ([1]; SGF (pH = 1.2), 24 hours): 2.88 µg/mL
Solubility at 25° C. ([1]; Water, 24 hours): 1.34 µg/mL
Color Change [2, 3]: Turn Yellow
Purity [2, 3]: 99.08%
Salt Type [2, 3]: No Change
Purity [2, 4]: 99.14%
Salt Type [2, 4]: No Change
Color Change [2, 5]: Turn Yellow
Purity [2, 5]: 99.74%
Salt Type [2, 5]: No Change
Color Change [2, 6]: Turn Yellow
Purity [2, 6]: 98.39%
Salt Type [2, 6]: No Change
Purity ([2]; Initial State): 99.12%
Color Change ([2]; Initial State (colour)): White
Color Change [2, 7]: No Change
Purity [2, 7]: 99.35%
Salt Type [2, 7]: No Change
Color Change [2, 8]: No Change
Purity [2, 8]: 99.26%
Salt Type [2, 8]: No Change
